Experimental data taken from patent publication US8772266B2, “Fungicide pyrazole carboxamides derivates” (Bayer Cropscience AG, priority 2009, dated 2014).

Assays:
[1] = test system: Sphaerotheca fuliginea; assay: In vivo preventive test on Sphaerotheca fuliginea (cucumber), Example G; details: 10 ppm of active ingredient, evaluated 7 days after inoculation
Excerpt: After the spray coating has dried on, the plants are inoculated with an aqueous spore suspension of Sphaerotheca fuliginea.

[2] = logP by HPLC on reversed-phase column (EEC Directive 79/831 Annex V.A8); details: 40° C., 0.1% aqueous formic acid and acetonitrile, linear gradient 10% to 90% acetonitrile
[3] = test system: Fusarium nivale; assay: In vivo curative test on Fusarium nivale (wheat); details: 500 ppm of active ingredient, evaluated 8 days after inoculation
[4] = test system: Tetranychus urticae; assay: Spray application test on Tetranychus urticae; format: in vivo; details: 500 g of active ingredient/ha; after 6 days
Experimental: Solvent: 78.0 parts by weight acetone • 1.5 parts by weight dimethylformamide
Emulsifier: 0.5 parts by weight alkylarylpolyglcolether
French beans (Phaseolus vulgaris) which are heavily infested with all stages of the two spotted spidermite (Tetranychus urticae), are sprayed with a preparation of the active ingredient at the desired concentration.
After 6 days, mortality in % is determined. 100% means that all spider mites have been killed and 0% means that none of the spider mites have been killed.

[5] = HPLC, reversed-phase column (C 18)
[6] = HPLC on reversed-phase column (C 18)

Cn1nc(C(F)F)c(C(=O)N(Cc2cc(Cl)ccc2C(F)(F)F)C2CC2)c1F [Example 1] gave a disease control [1] of 100%, a logP [2, 5] of 3.8 and a disease control [3] of 100%. For the same molecule, the mortality in % [4] was 80%.
Molecule CCc1ccccc1C(C)N(C(=O)c1c(C(F)F)nn(C)c1F)C1CC1 (stereo not shown) [Example 81] has a disease control [1] of 100%, a logP [2, 5] of 3.69 and a disease control [3] of 100%.
With CCc1cc(C)c(C)cc1CN(C(=O)c1c(C(F)F)nn(C)c1F)C1CC1 [Example 53] the logP [2, 5] was 4.04 and the disease control [3] was 100%.
In the case of Cn1nc(C(F)F)c(C(=O)N(Cc2ccc(Cl)cc2Cl)C2CC2)c1F [Example 63], the logP [2, 5] is reported as 3.69 and the disease control [3] is reported as 100%.
Work on CC(c1cccc2c1CCC(C)(C)C2)N(C(=O)c1c(C(F)F)nn(C)c1F)C1CC1 (racemic) [Example 44] yielded a logP [2, 5] of 4.89 and a disease control [3] of 100%.
Work on CC(c1cccc2c1CCCC2)N(C(=O)c1c(C(F)F)nn(C)c1F)C1CC1 (racemic) [Example 51] yielded a logP [2, 5] of 4.14 and a disease control [3] of 100%.
CCCCCc1ccccc1CN(C(=O)c1c(C(F)F)nn(C)c1F)C1CC1 [Example 28] showed a logP [2, 5] of 4.62 and a disease control [3] of 100%.
For CC(c1ncc(C(F)(F)F)cc1Cl)N(C(=O)c1c(C(F)F)nn(C)c1F)C1CC1 (stereo not shown) [Example 90], the logP [2, 5] was 3.71 and the disease control [3] was 100%.
Cn1nc(C(F)F)c(C(=O)N(Cc2c(F)cccc2I)C2CC2)c1F [Example 8] gave a disease control [1] of 100%, a logP [2, 5] of 3.26 and a disease control [3] of 100%.
In the case of CC(c1ncc(Cl)cc1Cl)N(C(=O)c1c(C(F)F)nn(C)c1F)C1CC1 (stereo not shown) [Example 62], the disease control [1] is reported as 100% and the logP [2, 5] is reported as 3.48.
CCCCCc1cccc(Cl)c1CN(C(=O)c1c(C(F)F)nn(C)c1F)C1CC1 [Example 27] gave a disease control [1] of 100% and a logP [2, 5] of 5.
Cn1nc(C(F)F)c(C(=O)N(Cc2ccccc2I)C2CC2)c1F [Example 9] gave a logP [2, 5] of 3.37 and a disease control [3] of 100%.
Work on Cn1nc(C(F)F)c(C(=O)N(Cc2c(Br)ccc(F)c2F)C2CC2)c1F [Example 10] yielded a disease control [1] of 100%, a logP [2, 5] of 3.21 and a disease control [3] of 100%.
With CCc1ccccc1CN(C(=O)c1c(C(F)F)nn(C)c1F)C1CC1 [Example 48] the logP [2, 5] was 3.33 and the disease control [3] was 100%.
With Cn1nc(C(F)F)c(C(=O)N(Cc2c(Cl)cccc2C(F)(F)F)C2CC2)c1F [Example 2] the disease control [1] was 100%, the logP [2, 5] was 3.46 and the disease control [3] was 100%.
For Cn1nc(C(F)F)c(C(=O)N(Cc2c(C(F)(F)F)ccc(Cl)c2F)C2CC2)c1F [Example 5], the disease control [1] was 100%, the logP [2, 5] was 3.62 and the disease control [3] was 100%. It also gave a mortality in % [4] of 80%.
For Cn1nc(C(F)F)c(C(=O)N(Cc2cc(I)ccc2C(F)(F)F)C2CC2)c1F [Example 43], the logP [2, 5] was 4.01 and the disease control [3] was 100%.
For Cn1nc(C(F)F)c(C(=S)N(Cc2c(Cl)cccc2C(F)(F)F)C2CC2)c1F [Example 132], the disease control [1] was 100% and the logP [2, 6] was 4.23.
In the case of CC(C)Oc1ccc2c(c1)CCCC2N(C(=O)c1c(C(F)F)nn(C)c1F)C1CC1 (stereo not shown) [Example 42], the logP [2, 5] is reported as 4.11 and the disease control [3] is reported as 100%.
Cn1nc(C(F)F)c(C(=O)N(Cc2ccccc2OC(F)(F)F)C2CC2)c1F [Example 105] gave a logP [2, 6] of 3.46 and a disease control [3] of 100%.
With Cn1nc(C(F)F)c(C(=O)N(Cc2cc(F)c(Br)cc2Br)C2CC2)c1F [Example 16] the logP [2, 5] was 3.96 and the disease control [3] was 100%.
Cn1nc(C(F)F)c(C(=S)N(Cc2ccccc2)C2CC2)c1F [Example 39] showed a logP [2, 5] of 3.44 and a disease control [3] of 100%.
Work on CC(C)c1ccccc1CN(C(=S)c1c(C(F)F)nn(C)c1F)C1CC1 [Example 131] yielded a disease control [1] of 100% and a logP [2, 6] of 4.36.
For Cn1nc(C(F)F)c(C(=O)N(Cc2cc(Cl)cc(Cl)c2Cl)C2CC2)c1F [Example 18], the disease control [1] was 100%, the logP [2, 5] was 4.11 and the disease control [3] was 100%.
For CC[Si](C)(C)c1ccccc1CN(C(=O)c1c(C(F)F)nn(C)c1F)C1CC1 [Example 13], the disease control [1] was 100% and the logP [2, 5] was 4.75.
For Cc1ccc(C(F)(F)F)c(CN(C(=O)c2c(C(F)F)nn(C)c2F)C2CC2)c1 [Example 12], the disease control [1] was 100% and the logP [2, 5] was 3.78.
CC[Si](CC)(CC)c1ccccc1CN(C(=O)c1c(C(F)F)nn(C)c1F)C1CC1 [Example 14] showed a disease control [1] of 100%, a logP [2, 5] of 5.53 and a disease control [3] of 100%.
For Cn1nc(C(F)F)c(C(=O)N(Cc2cc(Cl)ccc2I)C2CC2)c1F [Example 23], the disease control [1] was 100%, the logP [2, 5] was 3.83 and the disease control [3] was 100%.
Work on Cn1nc(C(F)F)c(C(=O)N(Cc2ccccc2SC(F)(F)F)C2CC2)c1F [Example 30] yielded a logP [2, 5] of 3.74, a disease control [3] of 100% and a mortality in % [4] of 80%.
In the case of CC(c1cc(Cl)cc(Cl)c1)N(C(=O)c1c(C(F)F)nn(C)c1F)C1CC1 (racemic) [Example 40], the logP [2, 5] is reported as 4.04, the disease control [3] is reported as 100% and the mortality in % [4] is reported as 80%.
Work on CC(C)Cc1cccc(Cl)c1CN(C(=O)c1c(C(F)F)nn(C)c1F)C1CC1 [Example 32] yielded a disease control [1] of 100% and a logP [2, 5] of 4.44.
Cn1nc(C(F)F)c(C(=O)N(Cc2cc(Cl)c(Cl)cc2C(F)(F)F)C2CC2)c1F [Example 25] showed a logP [2, 5] of 4.34 and a disease control [3] of 100%.
Cn1nc(C(F)F)c(C(=O)N(Cc2c(C(F)(F)F)ccc(Cl)c2Cl)C2CC2)c1F [Example 15] gave a disease control [1] of 100%, a logP [2, 5] of 3.89 and a disease control [3] of 100%.
Cn1nc(C(F)F)c(C(=O)N(Cc2cc(Cl)ccc2C(F)(F)F)C2CC2)c1Cl [Example 36] gave a logP [2, 5] of 4.01 and a disease control [3] of 100%.
In the case of CC(c1cc(Cl)ccc1C(F)(F)F)N(C(=O)c1c(C(F)F)nn(C)c1F)C1CC1 (stereo not shown) [Example 101], the disease control [1] is reported as 100% and the logP [2, 6] is reported as 3.92.
Molecule CC(C)c1ccccc1C(C)N(C(=O)c1c(C(F)F)nn(C)c1F)C1CC1 (stereo not shown) [Example 80] has a disease control [1] of 100%, a logP [2, 5] of 3.99 and a disease control [3] of 100%.
For Cc1cc(Br)c(CN(C(=O)c2c(C(F)F)nn(C)c2F)C2CC2)cc1Br [Example 17], the logP [2, 5] was 4.19 and the disease control [3] was 100%.
Cn1nc(C(F)F)c(C(=O)N(Cc2ccc(Cl)cc2I)C2CC2)c1F [Example 20] showed a logP [2, 5] of 3.99 and a disease control [3] of 100%.
In the case of CCCCCc1ccccc1C(C)N(C(=O)c1c(C(F)F)nn(C)c1F)C1CC1 (racemic) [Example 26], the disease control [1] is reported as 100% and the logP [2, 5] is reported as 4.92.
Molecule Cn1nc(C(F)F)c(C(=O)N(Cc2cc(Cl)ccc2[Si](C)(C)C)C2CC2)c1F [Example 24] has a disease control [1] of 100%, a logP [2, 5] of 4.81 and a disease control [3] of 100%.
For Cn1nc(C(F)F)c(C(=O)N(Cc2c(F)cccc2C(F)(F)F)C2CC2)c1F [Example 84], the disease control [1] was 100% and the disease control [3] was 100%.
For CC(C)c1ccc(Cl)cc1CN(C(=O)c1c(C(F)F)nn(C)c1F)C1CC1 [Example 29], the disease control [1] was 100%, the logP [2, 5] was 4.09 and the disease control [3] was 100%.
In the case of CC1CCc2cccc(C(C)N(C(=O)c3c(C(F)F)nn(C)c3F)C3CC3)c2C1 (mixture of isomers) [Example 50], the disease control [1] is reported as 100% and the logP [2, 5] is reported as 4.59.
Molecule Cn1nc(C(F)F)c(C(=O)N(Cc2cc(Cl)ccc2C2CC2)C2CC2)c1F [Example 41] has a disease control [1] of 100%, a logP [2, 5] of 3.87 and a disease control [3] of 100%.
For CC(c1ccc(Cl)cc1Cl)N(C(=O)c1c(C(F)F)nn(C)c1F)C1CC1 (stereo not shown) [Example 70], the disease control [1] was 100% and the logP [2, 5] was 3.83.
Molecule Cn1nc(C(F)F)c(C(=O)N(Cc2ccccc2C2CC2)C2CC2)c1F [Example 47] has a disease control [1] of 100% and a logP [2, 5] of 3.44.
With Cn1nc(C(F)F)c(C(=O)N(Cc2cccc(-c3ccccc3)c2)C2CC2)c1F [Example 64] the logP [2, 5] was 3.78 and the disease control [3] was 100%.
In the case of Cn1nc(C(F)F)c(C(=O)N(Cc2ccccc2C2CCCC2)C2CC2)c1F [Example 82], the disease control [1] is reported as 100% and the logP [2, 5] is reported as 4.2.
In the case of Cn1nc(C(F)F)c(C(=O)N(Cc2c(F)cccc2[Si](C)(C)C)C2CC2)c1F [Example 11], the disease control [1] is reported as 100% and the logP [2, 5] is reported as 4.31.
For Cc1cc(C)cc(C(C)N(C(=O)c2c(C(F)F)nn(C)c2F)C2CC2)c1 (racemic) [Example 46], the logP [2, 5] was 3.8 and the disease control [3] was 100%.
For CC(c1cccc2c1OC(F)(F)O2)N(C(=O)c1c(C(F)F)nn(C)c1F)C1CC1 (racemic) [Example 72], the disease control [1] was 100% and the logP [2, 5] was 3.58.
With CC(C)Cc1ccccc1CN(C(=O)c1c(C(F)F)nn(C)c1F)C1CC1 [Example 33] the logP [2, 5] was 4.15 and the disease control [3] was 100%.
Cn1nc(C(F)F)c(C(=O)N(Cc2cc(Cl)ccc2Br)C2CC2)c1F [Example 4] showed a logP [2, 5] of 3.67 and a disease control [3] of 100%.
Molecule Cn1nc(C(F)F)c(C(=O)N(Cc2c(Cl)cccc2Br)C2CC2)c1F [Example 83] has a disease control [1] of 100% and a logP [2, 5] of 3.42.
For Cn1nc(C(F)F)c(C(=O)N(Cc2ccccc2C(F)(F)F)C2CC2)c1F [Example 61], the logP [2, 5] was 3.39 and the disease control [3] was 100%.
For Cn1nc(C(F)F)c(C(=O)N(Cc2c([Si](C)(C)C)ccc(F)c2F)C2CC2)c1F [Example 49], the disease control [1] was 100% and the logP [2, 5] was 4.36.
